Ten compounds from patent US20130109646A1, “METHOD FOR TREATING GLAUCOMA OR OCULAR HYPERTENSION WITH AN ADENOSINE DERIVATIVE” (priority 2007, published 2013) can be followed below.

For test [1], the system named is intraocular pressure. The test is described as follows: Test for intraocular pressure reduction using cynomolgus monkeys. Type of test: in vivo. Particulars: male cynomolgus monkeys; for Maximum intraocular pressure reduction degree: 0.1% (w/v) test liquid instilled into one eye twice a day for 7 days, maximum over 2, 4, 6, 8 h after administration (Compound B: pH 7, 1, 2, 4, 6 h), average of 5 to 6 cases. On the procedure:
In order to examine the usefulness of the present compound as a preventive or therapeutic agent for glaucoma or ocular hypertension, an intraocular pressure lowering effect when the present compound was administered to cynomolgus monkeys (sex: male) was evaluated and studied. As the test compound, Compound A, Compound B, Compound C, Compound D, Compound E, Compound F, Compound G, Compound H and Compound I were used.
1) Just before a test liquid was administered, one drop of 0.4% oxybuprocaine hydrochloride eye drop was instilled into both eyes of each experimental animal to achieve local anesthesia, and the intraocular pressure was measured using an applanation tonometer. This intraocular pressure was determined as an initial intraocular pressure.
2) A 0.1% (w/v) test liquid (a solution or suspension) was prepared, and the test liquid was instilled into one eye of each experimental animal twice a day for 7 days. The other eye was left untreated, or a vehicle was instilled into the eye according to the same schedule. Incidentally, the test liquid was prepared according to the preparation method for an eye drop described above. Specifically, to 10 mM phosphate buffer or 1.7% borate buffer, polysorbate 80 and any of the test compounds were added and dissolved or dispersed therein. Then, the pH of the resulting solution or dispersion was adjusted to 5 with sodium hydroxide and/or dilute hydrochloric acid, whereby a test liquid containing each test compound was prepared (only in the case of Compound B, the pH of the test liquid was adjusted to 7).
3) After the test liquid was administered, the intraocular pressure of both eyes of each experimental animal was measured at predetermined times (at 2, 4, 6, and 8 hours after administration) (only in the case of Compound B, the intraocular pressure was measured at 1, 2, 4 and 6 hours after administration). Incidentally, before measurement, one drop of 0.4% oxybuprocaine hydrochloride eye drop was instilled into both eyes of each experimental animal to achieve local anesthesia.
The intraocular pressure reduction degree of each test compound administration group at each measurement time was calculated from the following calculation formula. Among the obtained intraocular pressure reduction degrees at respective measurement times, the maximum value was determined as a maximum intraocular pressure reduction degree.
Intraocular pressure reduction degree(mmHg)=|IOP (D−t)−IOP(D−0)| Equation 1
IOP (D-t): Intraocular pressure of the eye into which the test compound was administered at t hours after administration of test compound IOP (D-0): Initial intraocular pressure of the eye into which the test compound was administered

Test [2] has as its system intraocular pressure. The test is described as follows: Test for intraocular pressure reduction using Japanese white rabbits. Type of test: in vivo. Particulars: male Japanese white rabbits; for Intraocular pressure reduction degree: single dose into one eye, at 2 or 4 hours after instillation at which the pressure decreased most, average of 5 to 6 cases; for intraocular pressure lowering action (in words): single instillation, 0.003 to 0.2% (w/v) depending on compound. On the procedure: In order to examine the usefulness of the present compound as a preventive or therapeutic agent for glaucoma or ocular hypertension, an intraocular pressure lowering effect when the present compound was administered to Japanese white rabbits (sex: male) was evaluated and studied. As the test compound, Compound A, Compound B, Compound C, Compound E, Compound I and Compound J were used. According to the preparation method for an eye drop described above, each test liquid containing Compound A (0.003% (w/v)), Compound B (0.2% (w/v)), Compound C (0.01% (w/v)), Compound E (0.01% (w/v)), Compound I (0.01% (w/v)) or Compound J (0.01% (w/v)) was prepared. Specifically, to 10 mM phosphate buffer or 1.7% borate buffer, polysorbate 80 and any of the test compounds were added and dissolved or dispersed therein. Then, the pH of the resulting solution or dispersion was adjusted to 5 with sodium hydroxide and/or dilute hydrochloric acid, whereby a test liquid containing each test compound was prepared (only in the case of Compound B, the pH of the test liquid was adjusted to 7). 1) Just before any of the test liquids was administered, one drop of 0.4% oxybuprocaine hydrochloride eye drop was instilled into both eyes of each experimental animal to achieve local anesthesia, and the intraocular pressure was measured using an applanation tonometer. This intraocular pressure was determined as an initial intraocular pressure. 2) Any of the prepared test liquids was administered into one eye of each experimental animal in a single dose. The other eye was left untreated, or a vehicle was instilled into the eye according to the same schedule. 3) After the test liquid was administered, the intraocular pressure of both eyes of each experimental animal was measured at predetermined times (at […] after administration). Incidentally, before measurement, one drop of 0.4% oxybuprocaine hydrochloride eye drop was instilled into both eyes of each experimental animal to achieve local anesthesia. The intraocular pressure reduction degree of each test compound administration group at each measurement time was calculated from the following calculation formula. Intraocular pressure reduction degree (mmHg)=|IOP (Ad−t)−IOP(Ad−0) Equation 2 IOP (Ad-t): Intraocular pressure of the eye into which the test compound was administered at t hours after administration of test compound IOP (Ad-0): Initial intraocular pressure of the eye into which the test compound was administered

As for `COC(=O)N1CCC(CC#Cc2nc(N)c3ncn([C@@H]4O[C@H](C(=O)NC5CC5)[C@@H](O)[C@H]4O)c3n2)CC1` [Compound A, 4-{3-[6-amino-9-((2R,3R,4S,5S)-5-cyclopropylcarbamoyl-3,4-dihydroxytetrahydrofuran-2-yl)-9H-purin-2-yl]-2-propynyl}-piperidine-1-carboxylic acid methyl ester], the “intraocular pressure lowering action (in words)” value with intraocular pressure [1] (0.1% (w/v) instilled twice a day for 7 days) and with intraocular pressure [2] was “significantly higher intraocular pressure lowering action among the present compounds” throughout. Besides, the “lowering of trough intraocular pressure by repeated instillation (in words)” value in the test with intraocular pressure [1] (0.1% (w/v) repeated instillation (BID)) was “exhibited a high lowering action”. Further, in the test with intraocular pressure [1] (0.1% (w/v) repeated instillation (BID) for 7 days, difference from vehicle group), the “trough intraocular pressure value on day 7, lower than that in the vehicle administration group” value came out at 1.0 mmHg. Also, in the test with intraocular pressure [1], the “Maximum intraocular pressure reduction degree” value amounted to 4.9 mmHg. Further, the “Intraocular pressure reduction degree” value in the test on intraocular pressure [2] (0.003% (w/v) test liquid) was 3.8 mmHg.
For the compound `Nc1nc(C#CCC2CCN(C(=O)Oc3ccc(F)cc3)CC2)nc2c1ncn2[C@@H]1O[C@H](C(=O)NC2CC2)[C@@H](O)[C@H]1O` [Compound F, 4-{3-[6-amino-9-((2R,3R,4S,5S)-5-cyclopropylcarbamoyl-3,4-dihydroxytetrahydrofuran-2-yl)-9H-purin-2-yl]-2-propynyl}-piperidine-1-carboxylic acid 4-fluorophenyl ester], in the test with intraocular pressure [1], the “Maximum intraocular pressure reduction degree” value was found to be 2.7 mmHg.
On to `CCNC(=O)[C@H]1O[C@@H](n2cnc3c(N)nc(C#CCC4CCN(C(=O)OC(C)C)CC4)nc32)[C@H](O)[C@@H]1O` [Compound E, 4-{3-[6-amino-9-((2R,3R,4S,5S)-5-ethylcarbamoyl-3,4-dihydroxytetrahydrofuran-2-yl)-9H-purin-2-yl]-2-propynyl}-piperidine-1-carboxylic acid isopropyl ester], for which the “Maximum intraocular pressure reduction degree” value in the test on intraocular pressure [1] amounted to 2.9 mmHg. For the same compound, the “Intraocular pressure reduction degree” value with intraocular pressure [2] (0.01% (w/v) test liquid) came out at 2.6 mmHg.
Regarding `CCNC(=O)[C@H]1O[C@@H](n2cnc3c(N)nc(C#CCC4CCN(C(=O)OCC)CC4)nc32)[C@H](O)[C@@H]1O` [Compound D, 4-{3-[6-amino-9-((2R,3R,4S,5S)-5-ethylcarbamoyl-3,4-dihydroxytetrahydrofuran-2-yl)-9H-purin-2-yl]-2-propynyl}-piperidine-1-carboxylic acid ethyl ester], the “Maximum intraocular pressure reduction degree” value with intraocular pressure [1] is given as 2.9 mmHg.
With `CCNC(=O)[C@H]1O[C@@H](n2cnc3c(N)nc(C#CCC4CCC(C(=O)OC)CC4)nc32)[C@H](O)[C@@H]1O` (stereo partly drawn) [Compound B, 4-{3-[6-amino-9-((2R,3R,4S,5S)-5-ethylcarbamoyl-3,4-dihydroxytetrahydrofuran-2-yl)-9H-purin-2-yl]-2-propynyl}-cyclohexane-1-carboxylic acid methyl ester], the “Maximum intraocular pressure reduction degree” value with intraocular pressure [1] was 2.2 mmHg. The “Intraocular pressure reduction degree” value with intraocular pressure [2] (0.2% (w/v) test liquid (pH 7)) came out at 2.1 mmHg.
In the case of `COc1ccccc1OC(=O)N1CCC(CC#Cc2nc(N)c3ncn([C@@H]4O[C@H](C(=O)NC5CC5)[C@@H](O)[C@H]4O)c3n2)CC1` [Compound G, 4-{3-[6-amino-9-((2R,3R,4S,5S)-5-cyclopropylcarbamoyl-3,4-dihydroxytetrahydrofuran-2-yl)-9H-purin-2-yl]-2-propynyl}-piperidine-1-carboxylic acid 2-methoxyphenyl ester], the “Maximum intraocular pressure reduction degree” value in the test with intraocular pressure [1] is listed as 2.7 mmHg.
For the compound `Nc1nc(C#CCC2CCN(C(=O)OC3CCC3)CC2)nc2c1ncn2[C@@H]1O[C@H](C(=O)NC2CC2)[C@@H](O)[C@H]1O` [Compound J, 4-{3-[6-amino-9-((2R,3R,4S,5S)-5-cyclopropylcarbamoyl-3,4-dihydroxytetrahydrofuran-2-yl)-9H-purin-2-yl]-2-propynyl}-piperidine-1-carboxylic acid cyclobutyl ester], the “Intraocular pressure reduction degree” value in the test with intraocular pressure [2] (0.01% (w/v) test liquid) came out at 4.1 mmHg. In addition, the “intraocular pressure lowering action (in words)” value in the test with intraocular pressure [2] was “significantly higher intraocular pressure lowering action among the present compounds”.
For the compound `Nc1nc(C#CCC2CCN(C(=O)Oc3ccc(F)c(F)c3)CC2)nc2c1ncn2[C@@H]1O[C@H](C(=O)NC2CC2)[C@@H](O)[C@H]1O` [Compound I, 4-{3-[6-amino-9-((2R,3R,4S,5S)-5-cyclopropylcarbamoyl-3,4-dihydroxytetrahydrofuran-2-yl)-9H-purin-2-yl]-2-propynyl}-piperidine-1-carboxylic acid 3,4-difluorophenyl ester], the “Maximum intraocular pressure reduction degree” value in the test on intraocular pressure [1] was determined as 1.8 mmHg. For the same compound, the “Intraocular pressure reduction degree” value in the test with intraocular pressure [2] (0.01% (w/v) test liquid) worked out at 1.7 mmHg.
As to `COc1ccc(OC(=O)N2CCC(CC#Cc3nc(N)c4ncn([C@@H]5O[C@H](C(=O)NC6CC6)[C@@H](O)[C@H]5O)c4n3)CC2)cc1` [Compound H, 4-{3-[6-amino-9-((2R,3R,4S,5S)-5-cyclopropylcarbamoyl-3,4-dihydroxytetrahydrofuran-2-yl)-9H-purin-2-yl]-2-propynyl}-piperidine-1-carboxylic acid 4-methoxyphenyl ester], the “Maximum intraocular pressure reduction degree” value with intraocular pressure [1] turned out to be 2.3 mmHg.
With `CCNC(=O)[C@H]1O[C@@H](n2cnc3c(N)nc(C#CCC4CCN(C(=O)OC)CC4)nc32)[C@H](O)[C@@H]1O` [Compound C, 4-{3-[6-amino-9-((2R,3R,4S,5S)-5-ethylcarbamoyl-3,4-dihydroxytetrahydrofuran-2-yl)-9H-purin-2-yl]-2-propynyl}-piperidine-1-carboxylic acid methyl ester], the “Maximum intraocular pressure reduction degree” value with intraocular pressure [1] was 2.7 mmHg. Further, in the test with intraocular pressure [2] (0.01% (w/v) test liquid), the “Intraocular pressure reduction degree” value is 2.8 mmHg.
